The record followed here is EP2530078A1, “THIAZOLE DERIVATIVE” (Takeda Pharmaceutical Company Limited, priority 2010, dated 2011).

Structures are written as SMILES. Structures can show the parent of a compound that is named as a salt.

The target of the first assay is T1, human GPR52 (Homo sapiens, UniProt Q9Y2T5).
T1 construct: expressed in transfected cells; host or cells: CHO(dhfr-) cells
T1 sequence (Q9Y2T5 whole entry): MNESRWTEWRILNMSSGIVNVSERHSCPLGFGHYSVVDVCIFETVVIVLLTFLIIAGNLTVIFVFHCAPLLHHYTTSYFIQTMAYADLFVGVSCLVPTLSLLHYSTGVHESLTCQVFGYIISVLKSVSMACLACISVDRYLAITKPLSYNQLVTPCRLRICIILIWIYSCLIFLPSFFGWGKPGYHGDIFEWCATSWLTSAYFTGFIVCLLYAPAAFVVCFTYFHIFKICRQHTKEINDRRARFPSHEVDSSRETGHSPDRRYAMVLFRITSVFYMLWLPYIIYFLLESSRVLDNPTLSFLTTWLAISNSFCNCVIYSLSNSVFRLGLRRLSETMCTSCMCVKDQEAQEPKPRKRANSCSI
The experiment in a line: Increase of intracellular cAMP concentration in human GPR52-expressing CHO cell (AlphaScreen cAMP assay). The class given is cell-based. Particulars: 0.5 h; test compound 10 µm, 37°C, 30 min, human GPR52-expressing CHO(dhfr-) cells; 100% = cAMP with 1 µM N-(2-hydroxyethyl)-3-[2-[3-(trifluoromethyl)benzyl]-1-benzofuran-4-yl]benzamide, 0% = DMSO; read-out: GPR52 agonist activity (%). The protocol:
Increase of intracellular cAMP concentration in human GPR52-expressing CHO cell
Using OptiPlate-384 (PerkinElmer Inc.), 1×10^4 human GPR52-expressing CHO(dhfr-) cells were incubated together with a test compound ([…]) in an assay buffer (30 µL, HBSS (containing Ca^2+ and Mg^2+), 0.5% BSA, 100 µM IBMX, 100 µM Ro20-1724, 5 mM HEPES (pH 7.55)) at 37°C for 30 min. Thereafter, according to the protocol of AlphaScreen cAMP Assay Kit (PerkinElmer Inc.), the intracellular cAMP concentration was measured by EnVision (PerkinElmer Inc.). The GPR52 agonist activity was calculated, assuming the intracellular cAMP concentration in the presence of 1 µM N-(2-hydroxyethyl)-3-[2-[3-(trifluoromethyl)benzyl]-1-benzofuran-4-yl]benzamide to be 100% and assuming the intracellular cAMP concentration when DMSO was added instead of the test compound to be 0%.
(In general: Bead proximity is the source of the signal in Alpha formats.)
`Cc1nc(Cc2cc(F)cc(Cl)c2)sc1NC(=O)c1ccc(=O)n(C)c1` [Example 167, N-[2-(3-chloro-5-fluorobenzyl)-4-methyl-1,3-thiazol-5-yl]-1-methyl-6-oxo-1,6-dihydropyridine-3-carboxamide]: the activation at 10 µM is 70%.

Take `Cc1nc(C(O)c2cccc(C(F)(F)F)c2)sc1NC(=O)c1ccnn1C` (stereo not drawn) [Example 210, N-(2-{hydroxy[3-(trifluoromethyl)phenyl]methyl}-4-methyl-1,3-thiazol-5-yl)-1-methyl-1H-pyrazole-5-carboxamide]: the activation at 10 µM worked out at 82%.

In the case of `Cc1nc(Cc2cc(F)cc(Cl)c2)sc1NC(=O)c1cc(Cn2ccnc2)nn1C` [Example 243, N-[2-(3-chloro-5-fluorobenzyl)-4-methyl-1,3-thiazol-5-yl]-3-[(1H-imidazol-1-yl)methyl]-1-methyl-1H-pyrazole-5-carboxamide], the activation at 10 µM was 77%.

With `Cc1nc(Cc2cccc(C3CC3)c2)sc1NC(=O)c1ccnn1C` [Example 227, N-[2-(3-cyclopropylbenzyl)-4-methyl-1,3-thiazol-5-yl]-1-methyl-1H-pyrazole-5-carboxamide], the activation at 10 µM was 101%.

Take `Cc1nc(Cc2cccc(C(F)(F)F)c2)sc1NC(=O)c1c(C)nn(C)c1Cl` [Example 51, 5-chloro-1,3-dimethyl-N-{4-methyl-2-[3-(trifluoromethyl)-benzyl]-1,3-thiazol-5-yl}-1H-pyrazole-4-carboxamide]: the activation at 10 µM turned out to be 77%.

Take `Cc1nc(Cc2ccc(F)c(Cl)c2)sc1NC(=O)c1ccnn1C` [Example 156, N-[2-(3-chloro-4-fluorobenzyl)-4-methyl-1,3-thiazol-5-yl]-1-methyl-1H-pyrazole-5-carboxamide]: the activation at 10 µM turned out to be 76%.

Regarding `Cc1cccc(Cc2nc(C)c(NC(=O)c3ccnn3C)s2)c1` [Example 221, 1-methyl-N-[4-methyl-2-(3-methylbenzyl)-1,3-thiazol-5-yl]-1H-pyrazole-5-carboxamide], the activation at 10 µM stood at 90%.

Take `Cc1nc(Cc2cc(F)cc(Cl)c2)sc1NC(=O)c1cc(S(C)(=O)=O)nn1C` [Example 246, N-[2-(3-chloro-5-fluorobenzyl)-4-methyl-1,3-thiazol-5-yl]-1-methyl-3-(methylsulfonyl)-1H-pyrazole-5-carboxamide]: the activation at 10 µM is 70%.

Consider `Cc1nc(Cc2cccc(C(F)(F)F)c2)sc1NC(=O)c1ccc(CCN2CCCC2)nc1` [Example 122, N-{4-methyl-2-[3-(trifluoromethyl)-benzyl]-1,3-thiazol-5-yl}-6-(2-pyrrolidin-1-ylethyl)pyridine-3-carboxamide], for which the activation at 10 µM amounted to 96%.

Turning to `Cc1nc(Cc2cccc(C(F)(F)F)c2)sc1NC(=O)c1ccnn1C` [Example 110, 1-methyl-N-{4-methyl-2-[3-(trifluoromethyl)-benzyl]-1,3-thiazol-5-yl}-1H-pyrazole-5-carboxamide], the activation at 10 µM worked out at 82%.

As for `Cc1nc(Cc2cc(F)cc(F)c2)sc1NC(=O)c1ccnn1C` [Example 220, N-[2-(3,5-difluorobenzyl)-4-methyl-1,3-thiazol-5-yl]-1-methyl-1H-pyrazole-5-carboxamide], the activation at 10 µM worked out at 79%.

As for `Cc1nc(Cc2cccc(C(F)(F)F)c2)sc1NC(=O)C1CCNCC1` [Example 33, N-{4-methyl-2-[3-(trifluoromethyl)benzyl]-1,3-thiazol-5-yl}piperidine-4-carboxamide hydrochloride], the activation at 10 µM came to 70%.

Take `COCc1nc(Cc2cccc(C(F)(F)F)c2)sc1NC(=O)c1ccnn1C` [Example 8, N-{4-(methoxymethyl)-2-[3-(trifluoromethyl)benzyl]-1,3-thiazol-5-yl}-1-methyl-1H-pyrazole-5-carboxamide]: the activation at 10 µM was 78%.

Take `Cc1nc(Cc2cc(F)cc(Cl)c2)sc1NC(=O)Cn1cnnn1` [Example 252, N-[2-(3-chloro-5-fluorobenzyl)-4-methyl-1,3-thiazol-5-yl]-2-(1H-tetrazol-1-yl)acetamide]: the activation at 10 µM was 72%.

Take `Cc1nc(Cc2cc(F)cc(Cl)c2)sc1NC(=O)c1nc([N+](=O)[O-])cn1C` [Example 169, N-[2-(3-chloro-5-fluorobenzyl)-4-methyl-1,3-thiazol-5-yl]-1-methyl-4-nitro-1H-imidazole-2-carboxamide]: the activation at 10 µM came out at 76%.

With `CCCc1nc(Cc2cccc(C(F)(F)F)c2)sc1NC(=O)c1ccnn1C` [Example 14, 1-methyl-N-{4-propyl-2-[3-(trifluoromethyl)benzyl]-1,3-thiazol-5-yl}-1H-pyrazole-5-carboxamide], the activation at 10 µM came to 80%.

Regarding `Cc1nc(Cc2cc(F)cc(Cl)c2)sc1NC(=O)c1cccc(S(C)(=O)=O)c1` [Example 228, N-[2-(3-chloro-5-fluorobenzyl)-4-methyl-1,3-thiazol-5-yl]-3-(methylsulfonyl)benzamide], the activation at 10 µM is 69%.

As for `Cc1nc(Cc2cc(F)cc(Cl)c2)sc1NC(=O)c1cc(CC#N)nn1C` [Example 230, N-[2-(3-chloro-5-fluorobenzyl)-4-methyl-1,3-thiazol-5-yl]-3-(cyanomethyl)-1-methyl-1H-pyrazole-5-carboxamide], the activation at 10 µM worked out at 71%.

Take `Cc1nc(Cc2cc(F)cc(Cl)c2)sc1NC(=O)c1ccnn1C(F)F` [Example 150, N-[2-(3-chloro-5-fluorobenzyl)-4-methyl-1,3-thiazol-5-yl]-1-(difluoromethyl)-1H-pyrazole-5-carboxamide]: the activation at 10 µM came out at 69%.

For `Cc1nc(Cc2cccc(C(F)(F)F)c2)sc1NC(=O)C1CCCNC1` (stereo not drawn) [Example 29, N-{4-methyl-2-[3-(trifluoromethyl)benzyl]-1,3-thiazol-5-yl}piperidine-3-carboxamide hydrochloride], the activation at 10 µM was 71%.

As to `Cc1nc(Cc2cc(F)cc(Cl)c2)sc1NC(=O)c1cc(CS(C)(=O)=O)nn1C` [Example 242, N-[2-(3-chloro-5-fluorobenzyl)-4-methyl-1,3-thiazol-5-yl]-1-methyl-3-[(methylsulfonyl)methyl]-1H-pyrazole-5-carboxamide], the activation at 10 µM was found to be 76%.

`Cn1nccc1C(=O)Nc1cnc(Cc2cccc(C(F)(F)F)c2)s1` [Example 1, 1-methyl-N-{2-[3-(trifluoromethyl)benzyl]-1,3-thiazol-5-yl}-1H-pyrazole-5-carboxamide]: the activation at 10 µM was 92%.

Take `COCCNC(=O)[C@@H]1C[C@H]1C(=O)Nc1sc(Cc2cc(F)cc(Cl)c2)nc1C` (relative stereo) [Example 189, trans-N-[2-(3-chloro-5-fluorobenzyl)-4-methyl-1,3-thiazol-5-yl]-N'-(2-methoxyethyl)cyclopropane-1,2-dicarboxamide]: the activation at 10 µM turned out to be 78%.

`Cc1nc(Cc2cc(F)cc(Cl)c2)sc1NC(=O)c1cc([S+](C)[O-])nn1C` (stereo not drawn) [Example 247, N-[2-(3-chloro-5-fluorobenzyl)-4-methyl-1,3-thiazol-5-yl]-1-methyl-3-(methylsulfinyl)-1H-pyrazole-5-carboxamide]: the activation at 10 µM was determined as 69%.

In the case of `CCc1cc(C(=O)Nc2sc(Cc3cc(F)cc(Cl)c3)nc2C)n(C)n1` [Example 177, N-[2-(3-chloro-5-fluorobenzyl)-4-methyl-1,3-thiazol-5-yl]-3-ethyl-1-methyl-1H-pyrazole-5-carboxamide], the activation at 10 µM was found to be 86%.

On to `CC(=O)N1CCC(C(=O)Nc2sc(Cc3cccc(C(F)(F)F)c3)nc2C)C1` (stereo not drawn) [Example 21, 1-acetyl-N-{4-methyl-2-[3-(trifluoromethyl)benzyl]-1,3-thiazol-5-yl}pyrrolidine-3-carboxamide], for which the activation at 10 µM was 69%.

In the case of `COCCn1nccc1C(=O)Nc1sc(Cc2cc(F)cc(Cl)c2)nc1C` [Example 161, N-[2-(3-chloro-5-fluorobenzyl)-4-methyl-1,3-thiazol-5-yl]-1-(2-methoxyethyl)-1-pyrazole-5-carboxamide], the activation at 10 µM is 81%.

Staying with this assay, now noted: test compound 10 µm, 37°C, 30 min, human GPR52-expressing CHO(dhfr-) cells; 100% = cAMP with 1 µM N-(2-hydroxyethyl)-3-[2-[3-(trifluoromethyl)benzyl]-1-benzofuran-4-yl]benzamide, 0% = DMSO.
For `CCNC(=O)N1CCC(C(=O)Nc2sc(Cc3cccc(C(F)(F)F)c3)nc2C)C1` (stereo not drawn) [Example 23, N1-ethyl-N3-{4-methyl-2-[3-(trifluoromethyl)benzyl]-1,3-thiazol-5-yl}pyrrolidine-1,3-dicarboxamide], the “GPR52 agonist activity (%)” value is recorded as 80%.

`Cc1nc(Cc2cccc(C(F)(F)F)c2)sc1NC(=O)C1CCNC1` (stereo not drawn) [Example 20, N-{4-methyl-2-[3-(trifluoromethyl)benzyl]-1,3-thiazol-5-yl}pyrrolidine-3-carboxamide hydrochloride]: the “GPR52 agonist activity (%)” value turned out to be 74%.

Consider `CCS(=O)(=O)N1CCC(C(=O)Nc2sc(Cc3cccc(C(F)(F)F)c3)nc2C)C1` (stereo not drawn) [Example 30, 1-(ethylsulfonyl)-N-(4-methyl-2-[3-(trifluoromethyl)benzyl]-1,3-thiazol-5-yl}pyrrolidine-3-carboxamide], for which the “GPR52 agonist activity (%)” value is 81%.
